Experimental data from patent US20090030024A1, “THIAZOLES AS FUNGICIDES” (priority 2005, published 2009).

Test: logP determination by retention times (calibration with alkan-2-ones)
Details: * HPLC reversed-phase C18, 40° C., mobile phase 0.1% aqueous formic acid and acetonitrile, linear gradient 10% to 95% acetonitrile
With `CN(C)c1nc(C(F)(F)F)c(-c2ccnc(Nc3cccc(O)c3)n2)s1` [Example 702, 3-({4-[2-(dimethylamine)-4-(trifluoromethyl)-1,3-thiazol-5-yl]pyrimidin-2-yl}amino)phenol] the logP was 2.84*. In the case of `CN(C)c1nc(C(F)(F)F)c(-c2ccnc(Nc3ccc4c(c3)OCO4)n2)s1` [Example 704, N-1,3-benzodioxol-5-yl-4-[2-(dimethylamine)-4-(trifluoromethyl)-1,3-thiazol-5-yl]pyrimidine-2-amine], the logP is reported as 3.63*. In the case of `COc1cc(Nc2nccc(-c3sc(N(C)C)nc3C(F)(F)F)n2)cc(OC)c1` [Example 707, N-(3,5-dimethoxyphenyl)-4-[2-(dimethylamine)-4-(trifluoromethyl)-1,3-thiazol-5-yl]pyrimidine-2-amine], the logP is reported as 3.85*. In the case of `CNc1nc(C)c(-c2ccnc(Nc3ccc(O)cc3)n2)s1` [Example 746, 4-({4-[4-methyl-2-(methylamine)-1,3-thiazol-5-yl]pyrimidin-2-yl}amino)phenol], the logP is reported as 1.11*.

Same assay, conditions: logP, * HPLC reversed-phase C18, 40° C., mobile phase 0.1% aqueous formic acid and acetonitrile, linear gradient 10% to 95% acetonitrile
`Cc1nc(C(F)(F)F)c(-c2ccnc(Nc3ccc4c(c3)OCO4)n2)s1` [Example 703, N-1,3-benzodioxol-5-yl-4-[2-methyl-4-(trifluoromethyl)-1,3-thiazol-5-yl]pyrimidine-2-amine] showed a chromatographic logP of 3.21. Work on `Cc1nc(C(F)(F)F)c(-c2ccnc(Nc3ccc(F)c(F)c3)n2)s1` [Example 705, N-(3,4-difluorophenyl)-4-[2-methyl-4-(trifluoromethyl)-1,3-thiazol-5-yl]pyrimidine-2-amine] yielded a chromatographic logP of 3.76. For `COc1cc(Nc2nccc(-c3sc(C)nc3C(F)(F)F)n2)cc(OC)c1` [Example 706, N-(3,5-dimethoxyphenyl)-4-[2-methyl-4-(trifluoromethyl)-1,3-thiazol-5-yl]pyrimidine-2-amine], the chromatographic logP was 3.41. Compound `COc1cc(Nc2nccc(-c3sc(C)nc3C(F)F)n2)cc(OC)c1OC` [Example 708, 4-[4-(difluoromethyl)-2-methyl-1,3-thiazol-5-yl]-N-(3,4,5-trimethoxyphenyl)pyrimidine-2-amine] has a chromatographic logP of 2.61. For `CC(=O)c1cccc(Nc2nccc(-c3sc(C)nc3C(F)F)n2)c1` [Example 709, 1-[3-({4-[4-(difluoromethyl)-2-methyl-1,3-thiazol-5-yl]pyrimidin-2-yl}amino)phenyl]ethanone], the chromatographic logP was 2.64. `Cc1nc(C(F)F)c(-c2ccnc(Nc3ccccc3)n2)s1` [Example 710, 4-[4-(difluoromethyl)-2-methyl-1,3-thiazol-5-yl]-N-phenylpyrimidine-2-amine] gave a chromatographic logP of 2.97. `CCc1nc(C)c(-c2ccnc(Nc3ccc(C(=O)NCCOC)cc3)n2)s1` [Example 711, 4-{[4-(2-ethyl-4-methyl-1,3-thiazol-5-yl)pyrimidin-2-yl]amino}-N-(2-methoxyethyl)benzamide] showed a chromatographic logP of 2.09. With `COC(=O)NCc1cccc(Nc2nccc(-c3sc(SC)nc3C)n2)c1` [Example 712, methyl-[3-({4-[4-methyl-2-(methylthio)-1,3-thiazol-5-yl]pyrimidin-2-yl}amino)benzyl]carbamate] the chromatographic logP was 2.16. For `COc1cc(Nc2nccc(-c3sc(-c4cccnc4)nc3C)n2)cc(OC)c1OC` [Example 713, 4-(4-methyl-2-pyridin-3-yl-1,3-thiazol-5-yl)-N-(3,4,5-trimethoxyphenyl)pyrimidine-2-amine], the chromatographic logP was 2.56. With `CCc1nc(C)c(-c2ccnc(Nc3cccnc3)n2)s1` [Example 714, 4-(2-ethyl-4-methyl-1,3-thiazol-5-yl)-N-pyridin-3-ylpyrimidine-2-amine] the chromatographic logP was 1.35. `Cc1nc(-c2cccnc2)sc1-c1ccnc(Nc2ccccc2)n1` [Example 715, 4-(4-methyl-2-pyridin-3-yl-1,3-thiazol-5-yl)-N-phenylpyrimidine-2-amine] showed a chromatographic logP of 3.04. `Cc1nc(C)c(-c2ccnc(Nc3cccnc3)n2)s1` [Example 716, 4-(2,4-dimethyl-1,3-thiazol-5-yl)-N-pyridin-3-ylpyrimidine-2-amine] gave a chromatographic logP of 0.98. With `CCc1nc(C)c(-c2ccnc(Nc3ccc(C(C)=O)cc3)n2)s1` [Example 717, 1-(4-{[4-(2-ethyl-4-methyl-1,3-thiazol-5-yl)pyrimidin-2-yl]amino}phenyl)ethanone] the chromatographic logP was 2.6. With `CCc1nc(C)c(-c2ccnc(Nc3ccc(C)c(C)c3)n2)s1` [Example 718, N-(3,4-dimethylphenyl)-4-(2-ethyl-4-methyl-1,3-thiazol-5-yl)pyrimidine-2-amine] the chromatographic logP was 3.71. Work on `COc1cc(Nc2nccc(-c3sc(NCC4CCCO4)nc3C)n2)cc(OC)c1` (stereo not drawn) [Example 719, N-(3,5-dimethoxyphenyl)-4-{4-methyl-2-[(tetrahydrofuran-2-ylmethyl)amino]-1,3-thiazol-5-yl}pyrimidine-2-amine] yielded a chromatographic logP of 2.02. Compound `Cc1nc(NCC2CCCO2)sc1-c1ccnc(Nc2ccc(N3CCCC3=O)cc2)n1` (stereo not drawn) [Example 720, 1-{4-[(4-{4-methyl-2-[(tetrahydrofuran-2-ylmethyl)amino]-1,3-thiazol-5-yl}pyrimidin-2-yl)amino]phenyl}pyrrolidin-2-one] has a chromatographic logP of 1.6. `CCc1nc(C)c(-c2ccnc(Nc3ccc(OCC(C)(C)C)nc3)n2)s1` [Example 721, N-[6-(2,2-dimethylpropoxy)pyridin-3-yl]-4-(2-ethyl-4-methyl-1,3-thiazol-5-yl)pyrimidine-2-amine] showed a chromatographic logP of 4.23. Work on `COCCCNc1nc(C)c(-c2ccnc(Nc3ccccc3)n2)s1` [Example 725, 4-{2-[(3-methoxypropyl)amino]-4-methyl-1,3-thiazol-5-yl}-N-phenylpyrimidine-2-amine] yielded a chromatographic logP of 1.81. For `COCCCNc1nc(C)c(-c2ccnc(Nc3cccc(Cl)c3)n2)s1` [Example 726, N-(3-chlorophenyl)-4-{2-[(3-methoxypropyl)amino]-4-methyl-1,3-thiazol-5-yl}pyrimidine-2-amine], the chromatographic logP was 2.28. `COCC(C)Nc1nc(C)c(-c2ccnc(Nc3ccc(N4CCCC4=O)cc3)n2)s1` (stereo not drawn) [Example 728, 1-{4-[(4-{2-[(2-methoxy-1-methylethyl)amino]-4-methyl-1,3-thiazol-5-yl}pyrimidin-2-yl)amino]phenyl}pyrrolidin-2-one] showed a chromatographic logP of 1.64. `COCC(C)Nc1nc(C)c(-c2ccnc(Nc3ccc(C(C)=O)cc3)n2)s1` (stereo not drawn) [Example 729, 1-{4-[(4-{2-[(2-methoxy-1-methylethyl)amino]-4-methyl-1,3-thiazol-5-yl}pyrimidin-2-yl)amino]phenyl}ethanone] gave a chromatographic logP of 1.92. `Cc1nc(N2CCOCC2)sc1-c1ccnc(Nc2ccccc2)n1` [Example 731, 4-(4-methyl-2-morpholin-4-yl-1,3-thiazol-5-yl)-N-phenylpyrimidine-2-amine] showed a chromatographic logP of 2.25. `CCc1nc(C)c(-c2ccnc(N(C(=O)OC)c3ccccc3)n2)s1` [Example 732, methyl-[4-(2-ethyl-4-methyl-1,3-thiazol-5-yl)pyrimidin-2-yl]phenylcarbamate] gave a chromatographic logP of 2.59. `CCCC(=O)c1ccc(Nc2nccc(-c3sc(CC)nc3C)n2)cc1` [Example 733, 1-(4-{[4-(2-ethyl-4-methyl-1,3-thiazol-5-yl)pyrimidin-2-yl]amino}phenyl)butan-1-one] showed a chromatographic logP of 3.5. In the case of `CC(=O)c1cccc(Nc2nccc(-c3sc(-c4cccnc4)nc3C)n2)c1` [Example 734, 1-(3-{[4-(4-methyl-2-pyridin-3-yl-1,3-thiazol-5-yl)pyrimidin-2-yl]amino}phenyl)ethanone], the chromatographic logP is reported as 2.56. For `COc1cc(Nc2nccc(-c3sc(N4CCOCC4)nc3C)n2)cc(OC)c1OC` [Example 735, 4-(4-methyl-2-morpholin-4-yl-1,3-thiazol-5-yl)-N-(3,4,5-trimethoxyphenyl)pyrimidine-2-amine], the chromatographic logP was 2.07. `CC(=O)c1cccc(Nc2nccc(-c3sc(N4CCOCC4)nc3C)n2)c1` [Example 736, 1-(3-{[4-(4-methyl-2-morpholin-4-yl-1,3-thiazol-5-yl)pyrimidin-2-yl]amino}phenyl)ethanone] showed a chromatographic logP of 2.16. Compound `COCC(C)Nc1nc(C)c(-c2ccnc(Nc3ccc(N)cc3)n2)s1` (stereo not drawn) [Example 737, N-(4-{2-[(2-methoxy-1-methylethyl)amino]-4-methyl-1,3-thiazol-5-yl}pyrimidin-2-yl)benzene-1,4-diamine] has a chromatographic logP of 1.68. In the case of `COCCCNc1nc(C)c(-c2ccnc(Nc3cccc(C(C)=O)c3)n2)s1` [Example 738, 1-{3-[(4-{2-[(3-methoxypropyl)amino]-4-methyl-1,3-thiazol-5-yl}pyrimidin-2-yl)amino]phenyl}ethanone], the chromatographic logP is reported as 1.75. Work on `Cc1nc(N2CCOCC2)sc1-c1ccnc(Nc2cccc(Cl)c2)n1` [Example 745, N-(3-chlorophenyl)-4-(4-methyl-2-morpholin-4-yl-1,3-thiazol-5-yl)pyrimidine-2-amine] yielded a chromatographic logP of 2.99. Compound `CCc1nc(C)c(-c2ccnc(Nc3cncc(C)c3)n2)s1` [Example 747, 4-(2-ethyl-4-methyl-1,3-thiazol-5-yl)-N-(5-methylpyridin-3-yl)pyrimidine-2-amine] has a chromatographic logP of 1.41. Work on `CCc1nc(C)c(-c2ccnc(Nc3ccc(N4CCCC4=O)cc3)n2)s1` [Example 748, 1-(4-{[4-(2-ethyl-4-methyl-1,3-thiazol-5-yl)pyrimidin-2-yl]amino}phenyl)pyrrolidin-2-one] yielded a chromatographic logP of 2.24. Compound `Cc1nc(C)c(-c2ccnc(Nc3ccc(N4CCCC4=O)cc3)n2)s1` [Example 749, 1-(4-{[4-(2,4-dimethyl-1,3-thiazol-5-yl)pyrimidin-2-yl]amino}phenyl)pyrrolidin-2-one] has a chromatographic logP of 1.99. `COCCNc1nc(C)c(-c2ccnc(Nc3ccc(F)c(C)c3)n2)s1` [Example 750, N-(4-fluoro-3-methylphenyl)-4-{2-[(2-methoxyethyl)amino]-4-methyl-1,3-thiazol-5-yl}pyrimidine-2-amine] showed a chromatographic logP of 2.04. Compound `COCCNc1nc(C)c(-c2ccnc(Nc3ccc(C(C)=O)cc3)n2)s1` [Example 751, 1-{4-[(4-{2-[(2-methoxyethyl)amino]-4-methyl-1,3-thiazol-5-yl}pyrimidin-2-yl)amino]phenyl}ethanone] has a chromatographic logP of 1.72.
